Key:
Assay type in all cases: physicochemical
[1] = Dissolution profiles, USP Method 2, dissolved content by HPLC
Experimental: For comparison, new pseudopolymorph Ic as prepared by the procedure in Example 3 above and new amorphous 9-deoxo-9a-aza-9a-methyl-9a-homoerythromycin A as prepared by the procedure in Example 11 above were used. The comparative dissolution profiles were determined by USP Method 2, PharmaTest Dissolution Tester, PTW SII; and the content of dissolved 9-deoxo-9a-aza-9a-methyl-9a-homoerythromycin A was measured by HPLC. The data thus obtained are set forth in Table 2 below, and plotted in FIGS. 8 (pH 3) and 9 (pH 6).

[2] = Intrinsic dissolution rate (IDR), Intrinsic Dissolution Tester, Van Kel Type; details: medium of pH 6 and 37° C.
Experimental: The intrinsic dissolution rates (IDR) for the new amorphous 9-deoxo-9a-aza-9a-methyl-9a-homoerythromycin A prepared according to the procedure of Example 11, and the commercial 9-deoxo-9a-aza-9a-methyl-9a-homoerythromycin A dihydrate, in medium of pH 6 and 37° C., were determined by Intrinsic Dissolution Tester, Van Kel Type. The IDR for the new amorphous 9-deoxo-9a-aza-9a-methyl-9a-homoerythromycin A was about […], about […] higher than the IDR of the prior art, i.e. 9-deoxo-9a-aza-9a-methyl-9a-homoerythromycin A dihydrate (about 1.8 mg min^−1cm^−2).

[3] = Hygroscopicity and stability at normal storage conditions

| Percent dissolved ([1]; pH 3, 37° C., 5 minutes) [%] | Percent dissolved ([1]; pH 3, 37° C., 10 minutes) [%] | Percent dissolved ([1]; pH 3, 37° C., 20 minutes) [%] | Percent dissolved ([1]; pH 3, 37° C., 45 minutes) [%] | Percent dissolved ([1]; pH 3, 37° C., 60 minutes) [%] | Percent dissolved ([1]; pH 6, 37° C., 5 minutes) [%] | Percent dissolved ([1]; pH 6, 37° C., 10 minutes) [%] | Percent dissolved ([1]; pH 6, 37° C., 20 minutes) [%] | Percent dissolved ([1]; pH 6, 37° C., 45 minutes) [%] | Percent dissolved ([1]; pH 6, 37° C., 60 minutes) [%] | Compound | also measured |
| --- | --- | --- | --- | --- | --- | --- | --- | --- | --- | --- | --- |
| 12.3 | 29.4 | 52.5 | 92.2 | 93.2 | 74.0 | 98.8 | 98.6 | 95.3 | 94.6 | CC[C@H]1OC(=O)[C@H](C)[C@@H](O[C@H]2C[C@@](C)(OC)[C@@H](O)[C@H](C)O2)[C@H](C)[C@@H](O[C@@H]2O[C@H](C)C[C@H](N(C)C)[C@H]2O)[C@](C)(O)C[C@@H](C)CN(C)[C@H](C)[C@@H](O)[C@]1(C)O [Ic, 9-deoxo-9a-aza-9a-methyl-9a-homoerythromycin A] | – |
| – | – | – | – | – | – | – | – | – | – | CC[C@H]1OC(=O)[C@H](C)[C@@H](O[C@H]2C[C@@](C)(OC)[C@@H](O)[C@H](C)O2)C(C)[C@@H](O[C@@H]2O[C@H](C)C[C@H](N(C)C)[C@H]2O)[C@](C)(O)C[C@@H](C)CN(C)[C@H](C)[C@@H](O)[C@]1(C)O (stereo partly drawn) [9-deoxo-9a-aza-9a-methyl-9a-homoerythromycin A dihydrate, reference compound] | Percent dissolved ([1]; pH 3, 37° C., 5 minutes, dihydrate): 3.9%; Percent dissolved ([1]; pH 3, 37° C., 10 minutes, dihydrate): 8.1%; Percent dissolved ([1]; pH 3, 37° C., 20 minutes, dihydrate): 14.6%; Percent dissolved ([1]; pH 3, 37° C., 45 minutes, dihydrate): 26.7%; Percent dissolved ([1]; pH 3, 37° C., 60 minutes, dihydrate): 33.3%; Percent dissolved ([1]; pH 6, 37° C., 5 minutes, dihydrate): 14.5%; Percent dissolved ([1]; pH 6, 37° C., 10 minutes, dihydrate): 27.3%; Percent dissolved ([1]; pH 6, 37° C., 20 minutes, dihydrate): 44.2%; Percent dissolved ([1]; pH 6, 37° C., 45 minutes, dihydrate): 69.1%; Percent dissolved ([1]; pH 6, 37° C., 60 minutes, dihydrate): 73.7%; Intrinsic dissolution rate (IDR) ([2]; dihydrate): about 1.8 mg min^−1 cm^−2 |
| 14.3 | 26.5 | 50.5 | 85.8 | 89.5 | 78.5 | 97.5 | 98.7 | 96.7 | 95.1 | CC[C@H]1OC(=O)[C@H](C)[C@@H](O[C@H]2C[C@@](C)(OC)[C@@H](O)[C@H](C)O2)C(C)[C@@H](O[C@@H]2O[C@H](C)C[C@H](N(C)C)[C@H]2O)[C@](C)(O)C[C@@H](C)CN(C)[C@H](C)[C@@H](O)[C@]1(C)O (stereo partly drawn) [Example 11, 9-deoxo-9a-aza-9a-methyl-9a-homoerythromycin A] | Specific dissolution rate as compared with the dihydrate ([1]; compared with the dihydrate): significantly better; Hygroscopicity [3]: not hygroscopic; Stability (chemical stability and stability of the "crystal" form) ([3]; normal storage conditions): stable; Intrinsic dissolution rate (IDR) [2]: about 2.79 mg min^−1 cm^−2; IDR higher than the IDR of the dihydrate ([2]; relative to commercial dihydrate): about 40% |

From US6936591B2, “Amorphous 9-deoxo-9a-aza-9a-methyl-9a-homoerythromycin A, process for preparing the same, and uses thereof” (Pliva Pharmaceutical Industry, Incorporated, priority 2002, dated 2005)
